Drawing on patent US20260022142A1, “MACROCYCLIC IMMUNOMODULATORS” (Bristol-Myers Squibb Company, priority 2022, published 2026), this text covers IC50 for 13 compounds.

Usually IC50 stands for the concentration that inhibits the measured activity by half.

Bridge positions count the residues as written; N and C are the ends. Square brackets hold non-standard residues; d marks the D form. Peptide text beside a SMILES is read from it. * marks the point of attachment. Phe(4-COOH) = N[C@@H](Cc1ccc(C(=O)O)cc1)C(=O)O; Bip = N[C@@H](Cc1ccc(-c2ccccc2)cc1)C(=O)O; Phe(3-Me) = Cc1cccc(C[C@H](N)C(=O)O)c1; Cha = N[C@@H](CC1CCCCC1)C(=O)O; Carboxymethyl = O=C(O)C*; Orn = NCCC[C@H](N)C(=O)O; Aun = NCCCCCCCCCCC(=O)O; Dab = NCC[C@H](N)C(=O)O; Dap = NC[C@H](N)C(=O)O; AEEA = NCCOCCOCC(=O)O

T1 sequence (Q15116 25-288): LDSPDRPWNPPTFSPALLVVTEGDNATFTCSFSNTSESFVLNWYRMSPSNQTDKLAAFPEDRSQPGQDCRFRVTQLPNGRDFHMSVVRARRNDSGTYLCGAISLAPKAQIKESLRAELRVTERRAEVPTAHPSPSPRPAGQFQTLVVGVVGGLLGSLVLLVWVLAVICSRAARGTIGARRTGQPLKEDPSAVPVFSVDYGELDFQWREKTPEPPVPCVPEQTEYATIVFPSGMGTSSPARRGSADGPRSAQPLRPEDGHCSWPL

This assay concerns the target T1, PD-1/PD-L1 interaction (PE-labeled human PD-L1-Ig binding to Jurkat cell line over-expressing human PD-1) (Homo sapiens, UniProt Q15116).
T1 construct: expressed in transfected cells; host or cells: Jurkat
Briefly: Jurkat-PD-1 Cell Binding High-Content Screening Assay (CBA). The assay is classed as cell-based. To be noted: Jurkat cell line over-expressing human PD-1; PE-labeled PD-L1-Ig 20 nM final; read-out: Jurkat hPD1-PDL1 IC50. The gist of the method: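 Read-out is high-content imaging of cell-bound phycoerythrin-tagged PD-L1-Ig on fixed, Hoechst-counterstained Jurkat cells that over-express human PD-1. Compound exposure lasts 2 h at 37° C before the labeled ligand (20 nM final) is added for a further hour.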
Regarding `Cc1cccc(C[C@@H]2NC(=O)[C@H](CC(=O)O)NC(=O)[C@H](Cc3ccc(OCC(=O)O)cc3)NC(=O)[C@H](CN)NC(=O)CSC[C@@H](C(=O)N[C@@H](CCCCN)C(=O)NCCOCCOCC(=O)NCCCCCCCCCCC(=O)O)NC(=O)[C@H](CN)NC(=O)[C@H](C(C)C)NC(=O)[C@H](CC3CCCCC3)NC(=O)[C@H](CCN)NC(=O)[C@@H](CC(C)C)NC(=O)[C@H](CCCN)NC(=O)[C@H](C(C)C)NC(=O)[C@H](Cc3ccc(-c4ccccc4)cc3)NC(=O)[C@H](C(C)C)NC2=O)c1` [Compound 2526] ({CH2CO}-[Dap]Y(Carboxymethyl)D[Phe(3-Me)]V[Bip]V[Orn][dL][Dab][Cha]V[Dap]CK[AEEA][Aun]-OH; thioether N-14), the IC50 came out at 7.2 nM.

For `Cc1cccc(C[C@@H]2NC(=O)[C@H](CC(=O)O)NC(=O)[C@H](Cc3ccc(OCC(=O)O)cc3)NC(=O)[C@H](CN)NC(=O)CSC[C@@H](C(=O)N[C@@H](CCCCN)C(=O)NCCOCCOCC(=O)NCCCCCCCCCCC(=O)O)NC(=O)[C@H](CCCN)NC(=O)[C@H](C(C)C)NC(=O)[C@H](CC3CCCCC3)NC(=O)[C@H](CCN)NC(=O)[C@@H](CC(C)C)NC(=O)[C@H](CCCN)NC(=O)[C@H](C(C)C)NC(=O)[C@H](Cc3ccc(-c4ccccc4)cc3)NC(=O)[C@H](C(C)C)NC2=O)c1` [Compound 2527] ({CH2CO}-[Dap]Y(Carboxymethyl)D[Phe(3-Me)]V[Bip]V[Orn][dL][Dab][Cha]V[Orn]CK[AEEA][Aun]-OH; thioether N-14), the IC50 turned out to be 6.8 nM. Take `Cc1cccc(C[C@@H]2NC(=O)[C@H](CC(=O)O)NC(=O)[C@H](Cc3ccc(OCC(=O)O)cc3)NC(=O)[C@H](CN)NC(=O)CSC[C@@H](C(=O)N[C@@H](CCCCN)C(=O)NCCOCCOCC(=O)NCCCCCCCCCCC(=O)O)NC(=O)[C@H](CCCNC(=N)N)NC(=O)[C@H](C(C)C)NC(=O)[C@H](CC3CCCCC3)NC(=O)[C@H](CCN)NC(=O)[C@@H](CC(C)C)NC(=O)[C@H](CCCN)NC(=O)[C@H](C(C)C)NC(=O)[C@H](Cc3ccc(-c4ccccc4)cc3)NC(=O)[C@H](C(C)C)NC2=O)c1` [Compound 2528] ({CH2CO}-[Dap]Y(Carboxymethyl)D[Phe(3-Me)]V[Bip]V[Orn][dL][Dab][Cha]VRCK[AEEA][Aun]-OH; thioether N-14): the IC50 is 7.8 nM. Regarding `CC(C)C[C@H]1NC(=O)[C@H](CCCN)NC(=O)[C@H](C(C)C)NC(=O)[C@H](Cc2ccc(-c3ccccc3)cc2)NC(=O)[C@H](C(C)C)NC(=O)[C@H](Cc2c[nH]c3ccccc23)NC(=O)[C@H](CC(=O)O)NC(=O)[C@H](Cc2ccc(OCC(=O)O)cc2)NC(=O)[C@H](Cc2ccc(OCC(=O)O)cc2)NC(=O)CSC[C@@H](C(=O)N[C@@H](CCCCN)C(=O)NCCOCCOCC(=O)NCCCCCCCCCCC(=O)O)NC(=O)[C@H](CCCN)NC(=O)[C@H](C(C)C)NC(=O)[C@H](CC2CCCCC2)NC(=O)[C@H](CCN)NC1=O` [Compound 2529] ({CH2CO}-Y(Carboxymethyl)Y(Carboxymethyl)DWV[Bip]V[Orn][dL][Dab][Cha]V[Orn]CK[AEEA][Aun]-OH; thioether N-14), the IC50 was 12.7 nM. Take `CC(C)C[C@H]1NC(=O)[C@H](CCCN)NC(=O)[C@H](C(C)C)NC(=O)[C@H](Cc2ccc(-c3ccccc3)cc2)NC(=O)[C@H](C(C)C)NC(=O)[C@H](Cc2c[nH]c3ccccc23)NC(=O)[C@H](CC(=O)O)NC(=O)[C@H](Cc2ccc(OCC(=O)O)cc2)NC(=O)[C@H](Cc2ccc(OCC(=O)O)cc2)NC(=O)CSC[C@@H](C(=O)N[C@@H](CCCCN)C(=O)NCCOCCOCC(=O)NCCCCCCCCCCC(=O)O)NC(=O)[C@H](CN)NC(=O)[C@H](C(C)C)NC(=O)[C@H](CC2CCCCC2)NC(=O)[C@H](CCN)NC1=O` [Compound 2530] ({CH2CO}-Y(Carboxymethyl)Y(Carboxymethyl)DWV[Bip]V[Orn][dL][Dab][Cha]V[Dap]CK[AEEA][Aun]-OH; thioether N-14): the IC50 amounted to 10.9 nM. The figure for `CC(C)C[C@H]1NC(=O)[C@H](CCCN)NC(=O)[C@H](C(C)C)NC(=O)[C@H](Cc2ccc(-c3ccccc3)cc2)NC(=O)[C@H](C(C)C)NC(=O)[C@H](Cc2c[nH]c3ccccc23)NC(=O)[C@H](CC(=O)O)NC(=O)[C@H](Cc2ccc(C(=O)O)cc2)NC(=O)[C@H](Cc2ccc(OCC(=O)O)cc2)NC(=O)CSC[C@@H](C(=O)N[C@@H](CCCCN)C(=O)NCCCCCCCCCCC(=O)O)NC(=O)[C@H](CCCCN)NC(=O)[C@H](C(C)C)NC(=O)[C@H](CC2CCCCC2)NC(=O)[C@H](CCN)NC1=O` [Compound 2531] ({CH2CO}-Y(Carboxymethyl)[Phe(4-COOH)]DWV[Bip]V[Orn][dL][Dab][Cha]VKCK[Aun]-OH; thioether N-14) is 22.2 nM. As for `CC(C)C[C@H]1NC(=O)[C@H](CCCN)NC(=O)[C@H](C(C)C)NC(=O)[C@H](Cc2ccc(-c3ccccc3)cc2)NC(=O)[C@H](C(C)C)NC(=O)[C@H](Cc2c[nH]c3ccccc23)NC(=O)[C@H](CC(=O)O)NC(=O)[C@H](Cc2ccc(OCC(=O)O)cc2)NC(=O)[C@H](Cc2ccc(OCC(=O)O)cc2)NC(=O)CSC[C@@H](C(=O)N[C@@H](CCCCN)C(=O)NCCCCCCCCCCC(=O)O)NC(=O)[C@H](CCCNC(=N)N)NC(=O)[C@H](C(C)C)NC(=O)[C@H](CC2CCCCC2)NC(=O)[C@H](CCN)NC1=O` [Compound 2532] ({CH2CO}-Y(Carboxymethyl)Y(Carboxymethyl)DWV[Bip]V[Orn][dL][Dab][Cha]VRCK[Aun]-OH; thioether N-14), the IC50 was 34.6 nM. For the compound `CC(C)C[C@H]1NC(=O)[C@H](CCCN)NC(=O)[C@H](C(C)C)NC(=O)[C@H](Cc2ccc(-c3ccccc3)cc2)NC(=O)[C@H](C(C)C)NC(=O)[C@H](Cc2c[nH]c3ccccc23)NC(=O)[C@H](CC(=O)O)NC(=O)[C@H](Cc2ccc(OCC(=O)O)cc2)NC(=O)[C@H](CN)NC(=O)CSC[C@@H](C(=O)N[C@@H](CCCCN)C(=O)NCCCCCCCCCCC(=O)O)NC(=O)[C@H](CCCCN)NC(=O)[C@H](C(C)C)NC(=O)[C@H](CC2CCCCC2)NC(=O)[C@H](CCN)NC1=O` [Compound 2533] ({CH2CO}-[Dap]Y(Carboxymethyl)DWV[Bip]V[Orn][dL][Dab][Cha]VKCK[Aun]-OH; thioether N-14), the IC50 stood at 23.8 nM.

Turning to `Cc1cccc(C[C@@H]2NC(=O)[C@H](CC(=O)O)NC(=O)[C@H](Cc3ccc(OCC(=O)O)cc3)NC(=O)[C@H](CN)NC(=O)CSC[C@@H](C(=O)N[C@@H](CCCCN)C(=O)NCCCCCCCCCCC(=O)O)NC(=O)[C@H](CN)NC(=O)[C@H](C(C)C)NC(=O)[C@H](CC3CCCCC3)NC(=O)[C@H](CCN)NC(=O)[C@@H](CC(C)C)NC(=O)[C@H](CCCN)NC(=O)[C@H](C(C)C)NC(=O)[C@H](Cc3ccc(-c4ccccc4)cc3)NC(=O)[C@H](C(C)C)NC2=O)c1` [Compound 2534] ({CH2CO}-[Dap]Y(Carboxymethyl)D[Phe(3-Me)]V[Bip]V[Orn][dL][Dab][Cha]V[Dap]CK[Aun]-OH; thioether N-14), the IC50 came to 6.3 nM.

Consider `Cc1cccc(C[C@@H]2NC(=O)[C@H](CC(=O)O)NC(=O)[C@H](Cc3ccc(OCC(=O)O)cc3)NC(=O)[C@H](CN)NC(=O)CSC[C@@H](C(=O)N[C@@H](CCCCN)C(=O)NCCCCCCCCCCC(=O)O)NC(=O)[C@H](CCCN)NC(=O)[C@H](C(C)C)NC(=O)[C@H](CC3CCCCC3)NC(=O)[C@H](CCN)NC(=O)[C@@H](CC(C)C)NC(=O)[C@H](CCCN)NC(=O)[C@H](C(C)C)NC(=O)[C@H](Cc3ccc(-c4ccccc4)cc3)NC(=O)[C@H](C(C)C)NC2=O)c1` [Compound 2535] ({CH2CO}-[Dap]Y(Carboxymethyl)D[Phe(3-Me)]V[Bip]V[Orn][dL][Dab][Cha]V[Orn]CK[Aun]-OH; thioether N-14), for which the IC50 turned out to be 6.4 nM. Consider `Cc1cccc(C[C@@H]2NC(=O)[C@H](CC(=O)O)NC(=O)[C@H](Cc3ccc(OCC(=O)O)cc3)NC(=O)[C@H](CN)NC(=O)CSC[C@@H](C(=O)N[C@@H](CCCCN)C(=O)NCCCCCCCCCCC(=O)O)NC(=O)[C@H](CCCNC(=N)N)NC(=O)[C@H](C(C)C)NC(=O)[C@H](CC3CCCCC3)NC(=O)[C@H](CCN)NC(=O)[C@@H](CC(C)C)NC(=O)[C@H](CCCN)NC(=O)[C@H](C(C)C)NC(=O)[C@H](Cc3ccc(-c4ccccc4)cc3)NC(=O)[C@H](C(C)C)NC2=O)c1` [Compound 2536] ({CH2CO}-[Dap]Y(Carboxymethyl)D[Phe(3-Me)]V[Bip]V[Orn][dL][Dab][Cha]VRCK[Aun]-OH; thioether N-14), for which the IC50 was 9.5 nM. Regarding `CC(C)C[C@H]1NC(=O)[C@H](CCCN)NC(=O)[C@H](C(C)C)NC(=O)[C@H](Cc2ccc(-c3ccccc3)cc2)NC(=O)[C@H](C(C)C)NC(=O)[C@H](Cc2c[nH]c3ccccc23)NC(=O)[C@H](CC(=O)O)NC(=O)[C@H](Cc2ccc(OCC(=O)O)cc2)NC(=O)[C@H](Cc2ccc(OCC(=O)O)cc2)NC(=O)CSC[C@@H](C(=O)N[C@@H](CCCCN)C(=O)NCCCCCCCCCCC(=O)O)NC(=O)[C@H](CCCN)NC(=O)[C@H](C(C)C)NC(=O)[C@H](CC2CCCCC2)NC(=O)[C@H](CCN)NC1=O` [Compound 2537] ({CH2CO}-Y(Carboxymethyl)Y(Carboxymethyl)DWV[Bip]V[Orn][dL][Dab][Cha]V[Orn]CK[Aun]-OH; thioether N-14), the IC50 is 18.9 nM.

In the case of `CC(C)C[C@H]1NC(=O)[C@H](CCCN)NC(=O)[C@H](C(C)C)NC(=O)[C@H](Cc2ccc(-c3ccccc3)cc2)NC(=O)[C@H](C(C)C)NC(=O)[C@H](Cc2c[nH]c3ccccc23)NC(=O)[C@H](CC(=O)O)NC(=O)[C@H](Cc2ccc(OCC(=O)O)cc2)NC(=O)[C@H](Cc2ccc(OCC(=O)O)cc2)NC(=O)CSC[C@@H](C(=O)N[C@@H](CCCCN)C(=O)NCCCCCCCCCCC(=O)O)NC(=O)[C@H](CN)NC(=O)[C@H](C(C)C)NC(=O)[C@H](CC2CCCCC2)NC(=O)[C@H](CCN)NC1=O` [Compound 2538] ({CH2CO}-Y(Carboxymethyl)Y(Carboxymethyl)DWV[Bip]V[Orn][dL][Dab][Cha]V[Dap]CK[Aun]-OH; thioether N-14), the IC50 was 13.6 nM.
